{"source": "PubChem BioAssay AID270", "about": "(DTP/NCI, 2004)", "tested_on": "BDF1 mice, s.c. Lewis lung carcinoma, T/C %", "assay": "NCI In Vivo Anticancer Drug Screen. Data for tumor model Lewis Lung Carcinoma (subcutaneous) in B6D2F1 (BDF1) mice", "outline": "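Transplanted tumors grown in mice; compound vs vehicle dosing; endpoint survival or tumor size; ratio T/C.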", "note": "Values joined by “and” are separate entries in the source; they are usually repeats but may differ in a detail not shown here. Identical values can stand only once. Inconclusive results are not listed."}
{"smiles": "CN[C@H]1CCc2cc(OC)c(OC)c(OC)c2-c2ccc(OC)c(=O)cc21", "values": [{"measurement": "T/C", "setting": "endpoint: mean tumor weight, dose: 0.63 mg/kg/injection, schedule: Q01DX011 (ip), vehicle: saline, higher = larger tumour", "value": "59 % of control"}, {"measurement": "T/C", "setting": "endpoint: mean tumor weight, dose: 1.25 mg/kg/injection, schedule: Q01DX011 (ip), vehicle: saline, higher = larger tumour", "value": "85 % of control"}, {"measurement": "T/C", "setting": "endpoint: mean tumor weight, dose: 2.5 mg/kg/injection, schedule: Q01DX011 (ip), vehicle: saline, higher = larger tumour", "value": "61 % of control"}, {"measurement": "T/C", "setting": "endpoint: mean tumor weight, dose: 5.0 mg/kg/injection, schedule: Q01DX011 (ip), vehicle: saline, higher = larger tumour", "value": "58 % of control and 72 % of control"}, {"measurement": "T/C", "setting": "endpoint: mean tumor weight, dose: 7.0 mg/kg/injection, schedule: Q01DX011 (ip), vehicle: saline, higher = larger tumour", "value": "33 % of control"}]}
{"smiles": "C[n+]1ccc(Nc2ccc(NC(=O)c3ccc(Nc4cc[n+](C)c5ccc(N)cc45)cc3N)cc2)cc1", "values": [{"measurement": "T/C", "setting": "endpoint: mean tumor weight, dose: 6.25 mg/kg/injection, schedule: Q01DX011 (ip), vehicle: saline, higher = larger tumour", "value": "158 % of control"}, {"measurement": "T/C", "setting": "endpoint: mean tumor weight, dose: 12.5 mg/kg/injection, schedule: Q01DX011 (ip), vehicle: saline, higher = larger tumour", "value": "40 % of control"}, {"measurement": "T/C", "setting": "endpoint: median survival time, dose: 3.13 mg/kg/injection, schedule: Q01DX009 (ip), vehicle: Klucel (hydroxypropylcellulose) (HPC), higher = longer survival", "value": "243 % of control"}, {"measurement": "T/C", "setting": "endpoint: median survival time, dose: 12.5 mg/kg/injection, schedule: Q01DX009 (ip), vehicle: Klucel (hydroxypropylcellulose) (HPC), higher = longer survival", "value": "244 % of control"}]}
{"smiles": "COCC(O)Cn1ccnc1[N+](=O)[O-]", "note": "(stereo not given)", "values": [{"measurement": "T/C", "setting": "endpoint: median survival time, dose: 500.0 mg/kg/injection, schedule: Q01DX001 (ip), vehicle: saline, higher = longer survival", "value": "81 % of control"}, {"measurement": "T/C", "setting": "endpoint: median survival time, dose: 600.0 mg/kg/injection, schedule: Q01DX001 (ip), vehicle: saline, higher = longer survival", "value": "77 % of control and 93 % of control"}, {"measurement": "T/C", "setting": "endpoint: median survival time, dose: 1000.0 mg/kg/injection, schedule: Q01DX001 (ip), vehicle: saline, higher = longer survival", "value": "74 % of control and 91 % of control and 94 % of control"}]}
{"smiles": "[I][Hg][CH2]C1OCCOC1[CH2][Hg][I]", "note": "(stereo not given)", "values": [{"measurement": "T/C", "setting": "endpoint: mean tumor weight, dose: 18.75 mg/kg/injection, schedule: Q01DX011 (ip), vehicle: saline, higher = larger tumour", "value": "79 % of control"}, {"measurement": "T/C", "setting": "endpoint: mean tumor weight, dose: 37.5 mg/kg/injection, schedule: Q01DX011 (ip), vehicle: saline, higher = larger tumour", "value": "64 % of control"}, {"measurement": "T/C", "setting": "endpoint: mean tumor weight, dose: 75.0 mg/kg/injection, schedule: Q01DX011 (ip), vehicle: saline, higher = larger tumour", "value": "54 % of control"}]}
{"smiles": "COc1cc2c(cc1NC(=O)N(CCCl)N=O)-c1ccccc1C2", "values": [{"measurement": "T/C", "setting": "endpoint: median survival time, dose: 118.0 mg/kg/injection, schedule: Q01DX001 (ip), vehicle: saline with Tween-80, higher = longer survival", "value": "93 % of control"}, {"measurement": "T/C", "setting": "endpoint: median survival time, dose: 177.0 mg/kg/injection, schedule: Q01DX001 (ip), vehicle: saline with Tween-80, higher = longer survival", "value": "114 % of control"}, {"measurement": "T/C", "setting": "endpoint: median survival time, dose: 266.0 mg/kg/injection, schedule: Q01DX001 (ip), vehicle: saline with Tween-80, higher = longer survival", "value": "106 % of control"}, {"measurement": "T/C", "setting": "endpoint: median survival time, dose: 400.0 mg/kg/injection, schedule: Q01DX001 (ip), vehicle: saline with Tween-80, higher = longer survival", "value": "101 % of control"}, {"measurement": "T/C", "setting": "endpoint: median survival time, dose: 600.0 mg/kg/injection, schedule: Q01DX001 (ip), vehicle: saline with Tween-80, higher = longer survival", "value": "90 % of control"}]}
{"smiles": "CS(=O)(=O)OCC#CCOS(C)(=O)=O", "values": [{"measurement": "T/C", "setting": "endpoint: mean tumor weight, dose: 16.0 mg/kg/injection, schedule: Q01DX011 (ip), vehicle: saline, higher = larger tumour", "value": "91 % of control"}, {"measurement": "T/C", "setting": "endpoint: mean tumor weight, dose: 32.0 mg/kg/injection, schedule: Q01DX011 (ip), vehicle: saline, higher = larger tumour", "value": "63 % of control"}]}
{"smiles": "CN1CC(=O)N=C1N", "values": [{"measurement": "T/C", "setting": "endpoint: mean tumor weight, dose: 31.3 mg/kg/injection, schedule: Q01DX011 (ip), vehicle: saline, higher = larger tumour", "value": "116 % of control"}, {"measurement": "T/C", "setting": "endpoint: mean tumor weight, dose: 62.5 mg/kg/injection, schedule: Q01DX011 (ip), vehicle: saline, higher = larger tumour", "value": "150 % of control"}, {"measurement": "T/C", "setting": "endpoint: mean tumor weight, dose: 125.0 mg/kg/injection, schedule: Q01DX011 (ip), vehicle: saline, higher = larger tumour", "value": "119 % of control"}, {"measurement": "T/C", "setting": "endpoint: mean tumor weight, dose: 250.0 mg/kg/injection, schedule: Q01DX011 (ip), vehicle: saline, higher = larger tumour", "value": "105 % of control"}]}
{"smiles": "Nc1ncc(CNc2ccc(C(=O)NC(CCC(=O)O)C(=O)O)cc2)c(N)n1", "note": "(stereo not given)", "values": [{"measurement": "T/C", "setting": "endpoint: median survival time, dose: 50.0 mg/kg/injection, schedule: Q01DX009 (ip), vehicle: Klucel (hydroxypropylcellulose) (HPC), higher = longer survival", "value": "94 % of control"}, {"measurement": "T/C", "setting": "endpoint: median survival time, dose: 100.0 mg/kg/injection, schedule: Q01DX009 (ip), vehicle: Klucel (hydroxypropylcellulose) (HPC), higher = longer survival", "value": "100 % of control"}, {"measurement": "T/C", "setting": "endpoint: median survival time, dose: 400.0 mg/kg/injection, schedule: Q01DX009 (ip), vehicle: Klucel (hydroxypropylcellulose) (HPC), higher = longer survival", "value": "117 % of control"}]}
{"smiles": "OCN(CO)c1nc(N(CO)CO)nc(N(CO)CO)n1", "values": [{"measurement": "T/C", "setting": "endpoint: median survival time, dose: 6.25 mg/kg/injection, schedule: Q01DX009 (ip), vehicle: saline with Tween-80, higher = longer survival", "value": "109 % of control"}, {"measurement": "T/C", "setting": "endpoint: median survival time, dose: 12.5 mg/kg/injection, schedule: Q01DX009 (ip), vehicle: saline with Tween-80, higher = longer survival", "value": "107 % of control"}, {"measurement": "T/C", "setting": "endpoint: median survival time, dose: 25.0 mg/kg/injection, schedule: Q01DX009 (ip), vehicle: saline with Tween-80, higher = longer survival", "value": "102 % of control"}]}
{"smiles": "COc1ccc2c3c(c4cc(OC)c(OC)cc4c2c1)C[C@H]1CCCCN1C3", "values": [{"measurement": "T/C", "setting": "endpoint: mean tumor weight, dose: 0.25 mg/kg/injection, schedule: Q01DX011 (ip), vehicle: other, higher = larger tumour", "value": "90 % of control and 100 % of control"}, {"measurement": "T/C", "setting": "endpoint: mean tumor weight, dose: 0.5 mg/kg/injection, schedule: Q01DX011 (ip), vehicle: other, higher = larger tumour", "value": "190 % of control"}, {"measurement": "T/C", "setting": "endpoint: mean tumor weight, dose: 0.75 mg/kg/injection, schedule: Q01DX011 (ip), vehicle: other, higher = larger tumour", "value": "87 % of control"}]}
